This note sets out measurements from US4824834A, “Pyrazolotriazine compounds” (Otsuka Pharmaceutical Company, Limited, priority 1986, dated 1989).

A word on the IC50: it is the concentration that inhibits the measured activity by half. A lower IC50 goes with inhibition by little substance.

One experiment has as its system uric acid in serum. The experiment is described as follows: Lowering effect of test compound on the level of uric acid in serum (in vivo, oral administration). On the set-up: species or system mouse (normal male ICR mice). The note with it: Mus musculus, 4 hours after administration, male ICR mice, suspended in 0.5% CMC-Na, read-out: in vivo Lowering rate (%) of uric acid in serum (in 4 hours). As to the method: Experiment 2 (In Vivo: Oral Administration)
(1) Animals, Method of Administration and Sampling of Serum
Normal male ICR mice (weighting about 30 g), were provided normal diet and tap water ad libitum. A test compound suspended in 0.5% CMC-Na was administered orally to the mice (each group: 6 mice) in a dose of 5 mg/kg.
(2) Measurement of Amount of Uric Acid in Serum
To the serum (200 μl) was added 10% perchloric acid (100 μl), and the mixture was centrifuged. To the supernatant fluid (100 μl) was added 0.2M Na2 HPO4 (200 μl), and the mixture (20 μl) was analyzed by HPLC to measure the amount of uric acid. The HPLC was carried out under the following conditions.
Column: Cosmosil packed column (.phi. 4.6 mm×150 mm, 5C18 -300)
(§1) Eluting solution: 10 mM phosphate buffer (pH 6.0)
(§2) Retention time: 2.4 minutes (uric acid)
(3) Lowering Effect of Test Compound on the Level of Uric Acid in Serum
The lowering rate of uric acid in serum was calculated by the following equation. [formula]
`CSc1ccc(-c2cnn3c(O)ncnc23)cc1C` [Example 30, 4-Hydroxy-8-(3-methyl-4-methylthiophenyl)pyrazolo[1,5-a]-1,3,5-triazine]: the inhibition in vivo at 5 mg/kg worked out at 47%.
The same measure, in the same setting: the result for `CSc1ccc(-c2cnn3c(O)ncnc23)cc1Cl` [Example 43, 8-(3-Chloro-4-methylthiophenyl)-4-hydroxypyrazolo[1,5-a]-1,3,5-triazine] reads 60.6%.
`CCSc1ccc(-c2cnn3c(O)ncnc23)cc1C` [Example 31, 8-(4-Ethylthio-3-methylphenyl)-4-hydroxypyrazolo[1,5-a]-1,3,5-triazine]: the inhibition in vivo at 5 mg/kg was determined as 63.5%.
For `Cc1cc(-c2cnn3c(O)ncnc23)ccc1[S+]([O-])c1ccccc1` (stereo not drawn) [Example 171, 4-Hydroxy-8-(3-methyl-4-phenylsulfinylphenyl)pyrazolo[1,5-a]-1,3,5-triazine], the inhibition in vivo at 5 mg/kg is 73.6%.
On the same count and under the same terms, the result for `CSc1cc(F)c(-c2cnn3c(O)ncnc23)cc1C` [Example 54, 8-(2-Fluoro-5-methyl-4-methylthiophenyl)-4hydroxypyrazolo[1,5-a]-1,3,5-triazine] reads 65.2%; that for `CSc1ccc(-c2cnn3c(O)ncnc23)cc1Br` [Example 146, 8-(3-Bromo-4-methylthiophenyl)-4-hydroxypyrazolo[1,5-a]-1,3,5-triazine], 47%.
Same read-out and setting: the figure for `Oc1ncnc2[nH]ncc12` [Allopurinol, 4-hydroxypyrazolo[3,4-d]pyrimidine, reference compound] is 34%.

The next experiment deals with T1, Xanthine oxidase (Mus musculus, UniProt Q00519).
T1 construct: The small intestine was homogenized in 4-fold volume of cooled phosphate buffered saline solution (PBS) and then centrifuged; from tissue; host or cells: small intestine of ICR strain mice; dialysed supernatant of a 105,000 g centrifugation
T1 sequence (Q00519 whole entry): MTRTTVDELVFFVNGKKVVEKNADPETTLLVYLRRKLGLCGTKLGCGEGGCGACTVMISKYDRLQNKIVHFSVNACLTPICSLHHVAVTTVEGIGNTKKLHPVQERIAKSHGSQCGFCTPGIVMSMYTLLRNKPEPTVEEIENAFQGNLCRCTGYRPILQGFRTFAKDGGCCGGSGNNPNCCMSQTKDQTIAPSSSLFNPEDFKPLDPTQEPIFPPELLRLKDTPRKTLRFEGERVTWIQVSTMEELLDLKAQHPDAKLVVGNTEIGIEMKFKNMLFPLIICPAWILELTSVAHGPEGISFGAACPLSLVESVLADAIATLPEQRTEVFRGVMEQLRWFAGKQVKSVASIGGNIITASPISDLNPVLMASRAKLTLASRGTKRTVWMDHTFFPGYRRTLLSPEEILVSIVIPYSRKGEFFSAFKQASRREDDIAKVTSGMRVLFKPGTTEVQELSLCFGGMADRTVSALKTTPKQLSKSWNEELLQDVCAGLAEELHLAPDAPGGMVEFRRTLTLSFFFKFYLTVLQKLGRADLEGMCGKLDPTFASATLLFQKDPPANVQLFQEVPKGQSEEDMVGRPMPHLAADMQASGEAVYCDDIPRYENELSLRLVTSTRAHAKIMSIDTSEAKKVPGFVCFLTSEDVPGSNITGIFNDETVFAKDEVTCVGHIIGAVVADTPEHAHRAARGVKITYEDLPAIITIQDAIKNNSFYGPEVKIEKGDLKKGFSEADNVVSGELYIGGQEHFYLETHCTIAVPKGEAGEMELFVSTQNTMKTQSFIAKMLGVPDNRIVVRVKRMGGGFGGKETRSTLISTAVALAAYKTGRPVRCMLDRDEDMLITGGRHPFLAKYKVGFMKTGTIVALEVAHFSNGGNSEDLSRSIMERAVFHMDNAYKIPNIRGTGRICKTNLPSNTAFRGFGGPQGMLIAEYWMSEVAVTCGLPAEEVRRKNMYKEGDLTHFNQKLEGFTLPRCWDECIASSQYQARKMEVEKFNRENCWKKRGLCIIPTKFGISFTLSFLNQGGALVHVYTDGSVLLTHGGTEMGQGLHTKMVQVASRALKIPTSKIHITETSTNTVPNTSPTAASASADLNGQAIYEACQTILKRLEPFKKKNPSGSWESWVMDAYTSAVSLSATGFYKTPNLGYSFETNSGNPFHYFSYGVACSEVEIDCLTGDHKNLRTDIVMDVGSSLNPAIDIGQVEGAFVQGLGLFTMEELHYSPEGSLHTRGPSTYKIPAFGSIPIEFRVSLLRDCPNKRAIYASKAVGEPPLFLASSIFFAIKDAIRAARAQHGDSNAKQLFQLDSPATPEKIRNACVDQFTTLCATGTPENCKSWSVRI
Briefly: Xanthine oxidase inhibition (in vitro), mouse small intestine xanthine oxidase solution, HPLC of uric acid. The format is biochemical, mouse (ICR strain mice. As to conditions: xanthine substrate, incubated at 37° C. for 5 minutes; HPLC UV 292 nm. As to the method: (1) Preparation of Xanthine Oxidase Solution
ICR strain mice were decapitated and the small intestine of each mouse was rapidly perfused with cooled physiological saline solution and removed. The small intestine was homogenized in 4-fold volume of cooled phosphate buffered saline solution (PBS) and then centrifuged at 105,000 g for 60 minutes. The supernatant fluid was dialyzed overnight against PBS. The dialyzed solution thus prepared was stored at -20° C. until used.
(2) Preparation of the Solution Containing the Present Compound
The compound of this invention was dissolved in DMSO (200 μl) and 2N NaOH (100 μl), and then PBS was added to prepare a solution (25 ml) containing 10^-3 M of the compound of this invention. This solution was diluted with PBS to prepare solutions containing the compound in the concentration of 10^-4, 10^-5, 10^-6, 10^-7, 10^-8, 10^-9, 10^-10, and 10^-11 M, respectively.
(3) Method for the Measurement
The assay mixture, consisted of the composition mentioned below, was incubated at 37° C. for 5 minutes. The reaction was stopped by heating in boiling water for one minute. Twenty microliters of the supernatant was analyzed by high performance liquid chromatography (HPLC) under the conditions mentioned below.
Xanthine oxidase solution (diluted in 4-folds with PBS): 200 μl
Solution containing the present compound: 200 μl
Column: osmosil packed column (.phi. 4. mm×150 mm, 5C18×300)
as §1, §2
(4) Percent Inhibition of the Compound Against Xanthine Oxidase
The percent inhibition was calculated by the following equation. [formula]
As to each of the solutions containing the present compound as prepared in the above (2), the percent inhibition was calculted, and IC50 values were obtained from a plot of the percent inhibition against the log of the concentration of the compound of this invention.
With `CC(C)(C)c1ccc(NS(=O)(=O)c2ccc(-c3cnn4c(O)ncnc34)cc2)cc1` [Example 100, 8-[4-(4-t-Butylphenylaminosulfonyl)phenyl]-4hydroxypyrazolo[1,5-a]-1,3,5-triazine], 0.75 nM corresponded to half-maximal inhibition (IC50).
The compound `COC(=O)c1ccc(NS(=O)(=O)c2ccc(-c3cnn4c(O)ncnc34)cc2)cc1` [Example 105, 4-Hydroxy-8-[4-(4-methoxycarbonylphenylaminosulfonyl)phenyl]pyrazolo[1,5-a]-1,3,5-triazine] yielded an IC50 of 2.2 nM.
Still for that read-out and setting: the figure for `CN(C)S(=O)(=O)c1ccc(-c2cnn3c(O)ncnc23)cc1Cl` [Example 136, 8-(3-Chloro-4-dimethylaminosulfonylphenyl)-4-hydroxypyrazolo[1,5-a]-1,3,5-triazine] is 32 nM; for `O=S(=O)(NCc1cccs1)c1ccc(-c2cnn3c(O)ncnc23)cc1` [Example 134, 4-Hydroxy-8-[4-(2-thienylmethylaminosulfonyl)phenyl]pyrazolo[1,5-a]-1,3,5-triazine] it is 76 nM.
`Oc1ncnc2c(-c3ccc(Sc4ccccc4)c(Cl)c3)cnn12` [Example 167, 8-(3-Chloro-4-phenylthiophenyl)-4-hydroxypyrazolo[1,5-a]-1,3,5-triazine] gave an IC50 of 5 nM.
Same read-out and setting: the result for `COC(=O)c1ccc(NS(=O)(=O)c2ccc(-c3cnn4c(O)ncnc34)cc2)cc1OC` [Example 113, 4-Hydroxy-8-[4-(3-methoxy-4-methoxycarbonylphenylaminosulfonyl)phenyl]pyrazolo[1,5-a]-1,3,5-triazine] reads 34 nM; that for `CSc1ccc(-c2cnn3c(O)ncnc23)cc1C` [Example 30, 4-Hydroxy-8-(3-methyl-4-methylthiophenyl)pyrazolo[1,5-a]-1,3,5-triazine], 71 nM; that for `CCc1cc(-c2cnn3c(O)ncnc23)ccc1SC` [Example 39, 8-(3-Ethyl-4-methylthiophenyl)-4-hydroxypyrazolo[1,5-a]-1,3,5-triazine], 45 nM.
With `COC(=O)c1ccc(NS(=O)(=O)c2ccc(-c3cnn4c(O)ncnc34)cc2)cc1O` [Example 112], the midpoint of inhibition, the IC50, lay at 6.5 nM.
In turn, `CCc1cccc(NS(=O)(=O)c2ccc(-c3cnn4c(O)ncnc34)cc2)c1` [Example 97, 8-[4-(3-Ethylphenylaminosulfonyl)phenyl]-4-hydroxypyrazolo[1,5-a]-1,3,5-triazine] came in with an IC50 of 0.45 nM.
Same read-out and setting: the figure for `CSc1ccc(-c2cnn3c(O)ncnc23)cc1Cl` [Example 43, 8-(3-Chloro-4-methylthiophenyl)-4-hydroxypyrazolo[1,5-a]-1,3,5-triazine] is 10 nM; for `Cc1cc(-c2cnn3c(O)ncnc23)ccc1S(=O)(=O)N(C)C` [Example 138, 8-(4-Dimethylaminosulfonyl-3-methylphenyl)-4hydroxypyrazolo[1,5-a]-1,3,5-triazine] it is 39 nM; for `Oc1ncnc2c(-c3ccc(Sc4ccccc4)cc3)cnn12` [Example 19, 4-Hydroxy-8-(4-phenylthiophenyl)pyrazolo[1,5-a]-1,3,5-triazine] it is 160 nM.
Still for that read-out and setting: the figure for `Cc1cc(-c2cnn3c(O)ncnc23)ccc1Br` [Example 142, 8-(4-Bromo-3-methylphenyl)-4-hydroxypyrazolo[1,5-a]-1,3,5-triazine] is 52 nM; for `CCc1ccc(NS(=O)(=O)c2ccc(-c3cnn4c(O)ncnc34)cc2)cc1` [Example 96, 8-[4-(4-Ethylphenylaminosulfonyl)phenyl]-4-hydroxypyrazolo[1,5-a]-1,3,5-triazine] it is 0.1 nM; for `CCSc1ccc(-c2cnn3c(O)ncnc23)cc1C` [Example 31, 8-(4-Ethylthio-3-methylphenyl)-4-hydroxypyrazolo[1,5-a]-1,3,5-triazine] it is 10 nM.
Same read-out and setting: the result for `Cc1cc(-c2cnn3c(O)ncnc23)ccc1[S+]([O-])c1ccccc1` (stereo not drawn) [Example 171, 4-Hydroxy-8-(3-methyl-4-phenylsulfinylphenyl)pyrazolo[1,5-a]-1,3,5-triazine] reads 2.4 nM; that for `Oc1ncnc2c(-c3cc(Cl)c(OCc4ccccc4)c(Cl)c3)cnn12` [Example 52, 8-(4-Benzyloxy-3,5-dichlorophenyl)-4-hydroxypyrazolo[1,5-a]-1,3,5-triazine], 53 nM.
For the compound `CSc1cc(F)c(-c2cnn3c(O)ncnc23)cc1C` [Example 54, 8-(2-Fluoro-5-methyl-4-methylthiophenyl)-4hydroxypyrazolo[1,5-a]-1,3,5-triazine], the IC50 stood at 550 nM.
The same measure, in the same setting: the figure for `CCSc1ccc(-c2cnn3c(O)ncnc23)cc1` [Example 17, 8-(4-Ethylthiophenyl)-4-hydroxypyrazolo[1,5-a]-1,3,5-triazine] is 30 nM; for `Cc1ccc(NS(=O)(=O)c2ccc(-c3cnn4c(O)ncnc34)cc2)cc1` [Example 95, 4-Hydroxy-8-[4-(4-methylphenylaminosulfonyl)phenyl]pyrazolo[1,5-a]-1,3,5-triazine] it is 3.6 nM.
Still for that read-out and setting: the figure for `O=S(=O)(Nc1ccc(Cl)cc1)c1ccc(-c2cnn3c(O)ncnc23)cc1` [Example 109, 8-[4-(4-Chlorophenylaminosulfonyl)phenyl]-4hydroxypyrazolo[1,5-a]-1,3,5-triazine] is 3.6 nM; for `CSc1ccc(-c2cnn3c(O)ncnc23)cc1Br` [Example 146, 8-(3-Bromo-4-methylthiophenyl)-4-hydroxypyrazolo[1,5-a]-1,3,5-triazine] it is 2.7 nM; for `Cc1cc(-c2cnn3c(O)ncnc23)ccc1[N+](=O)[O-]` [Example 73, 4-Hydroxy-8-(3-methyl-4-nitrophenyl)pyrazolo[1,5-a]-1,3,5-triazine] it is 40 nM.
The same measure, in the same setting: the figure for `CC(C)c1ccc(NS(=O)(=O)c2ccc(-c3cnn4c(O)ncnc34)cc2)cc1` [Example 99, 4-Hydroxy-8-[4-(4-isopropylphenylaminosulfonyl)phenyl]pyrazolo[1,5-a]-1,3,5-triazine] is 0.14 nM; for `COc1cc(-c2cnn3c(O)ncnc23)ccc1[N+](=O)[O-]` [Example 74, 4-Hydroxy-8-(3-methoxy-4-nitrophenyl)pyrazolo[1,5-a]-1,3,5-triazine] it is 50 nM; for `Oc1ncnc2c(-c3ccc(Br)c(Cl)c3)cnn12` [Example 143, 8-(4-Bromo-3-chlorophenyl)-4-hydroxypyrazolo[1,5-a]-1,3,5-triazine] it is 36 nM.
The compound `O=C(c1ccccc1)c1ccc(-c2cnn3c(O)ncnc23)cc1` [Example 70, 8-(4-Benzoylphenyl)-4-hydroxypyrazolo[1,5-a]-1,3,5-triazine] returned an IC50 of 5.2 nM.
As for `Oc1ncnc2c(-c3cc(Cl)c(Cl)c(Cl)c3)cnn12` [Example 53, 4-Hydroxy-8-(3,4,5-trichlorophenyl)pyrazolo[1,5-a]-1,3,5-triazine], the IC50 was 15 nM.
Still for that read-out and setting: the result for `O=S(=O)(Nc1cccc(O)c1)c1ccc(-c2cnn3c(O)ncnc23)cc1` [Example 107, 4-Hydroxy-8-[4-(3-hydroxyphenylaminosulfonyl)phenyl]pyrazolo[1,5-a]-1,3,5-triazine] reads 64 nM; that for `CC(O)c1ccc(NS(=O)(=O)c2ccc(-c3cnn4c(O)ncnc34)cc2)cc1` (stereo not drawn) [Example 101, 4-Hydroxy-8-[4-(4-α-hydroxyethylphenylaminosulfonyl)phenyl]pyrazolo[1,5-a]-1,3,5-triazine], 54 nM.
On the same count and under the same terms, the figure for `Cc1ccc(Sc2ccc(-c3cnn4c(O)ncnc34)cc2)cc1` [Example 21, 4-Hydroxy-8-[4-(4-methylphenylthio)phenyl]pyrazolo[1,5-a]-1,3,5-triazine] is 310 nM.
